Series [1] in a line: Human liver microsome stability. Type of series: in vitro ADME. To be noted: 1 μM compound, NADPH 1 mM, 37° C., 0-60 min; for HLM Metabolism t1/2: pooled human liver microsomes 0.5 mg/mL. A digest of the protocol:
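Single incubations with human liver microsomes started with 1 mM NADPH; samples taken at 0, 5, 10, 20, 40 and 60 min, quenched in acetonitrile (1:3). Cassette LC-MS analysis with internal standard; t½ derived from slope of ln peak-area ratio versus time (k = −gradient).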
Background: Microsomes from liver hold many membrane-bound enzymes, among them those of drug oxidation.

Series [2] has as its system HepG2 or HepG2.117 cells. Nature of the series: Cytotoxicity, ATPlite Luminescence Assay. The class given is cell-based, human. To be noted: 3-days incubation unless marked with *. In outline: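 Luminescent ATP quantitation served as the viability endpoint following a 3- or 4-day incubation with test compounds.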
(Cellular ATP, detected with luciferase, serves as a proxy for viable cell number.)

Series [3] concerns HBV (HepG2.117 cell line, inducibly HBV producing). Briefly: Anti-HBV activity, intracellular HBV DNA by real-time PCR in HepG2.117 cell line. The class given is cell-based, hepatitis B virus. The following applies: HepG2.117 cells, 3 days of treatment. In outline:
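Inducible HBV-producing HepG2.117 line (Tet-off); 3-day exposure to serially diluted compound after induction; real-time PCR of intracellular viral DNA.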
(In qPCR the cycle at which signal appears reflects the starting amount.)

Take `CC(c1ccc(-n2cncn2)nc1)N1C[C@@H](C)n2nc3c(c2C1=O)CN(C(=O)c1ccc(Cl)c(Cl)c1)[C@H](C)C3` (single isomer, unassigned) [Compound 5B, (3R,7R)-9-((S*)-1-(6-(1H-1,2,4-triazol-1-yl)pyridin-3-yl)ethyl)-2-(3,4-dichlorobenzoyl)-3,7-dimethyl-1,2,3,4,8,9-hexahydropyrido[4′,3′:3,4]pyrazolo[1,5-a]pyrazin-10(7H)-one]: in series [1], the “HLM Metabolism t1/2” value is 2.08 h. For the same compound, the CC50 (commonly the concentration at which the toxic effect on the cells reaches its halfway point) in series [2] was 28.4 µM. For the same compound, the EC50 (as a rule, the concentration that produces a half-maximal response) in series [3] amounted to 0.017 µM.

In the case of `CC(c1ccc(S(N)(=O)=O)cc1)N1C[C@@H](C)n2nc3c(c2C1=O)CN(C(=O)c1ccc(Cl)c(Cl)c1)[C@H](C)C3` (single isomer, unassigned) [Compound 16B, 4-((S*)-1-((3R,7R)-2-(3,4-dichlorobenzoyl)-3,7-dimethyl-10-oxo-1,2,3,4,7,8-hexahydropyrido[4′,3′:3,4]pyrazolo[1,5-a]pyrazin-9(10H)-yl)ethyl)benzenesulfonamide], the “HLM Metabolism t1/2” value in series [1] is >3 h. The CC50 in series [2] is > 50 µM. Also, in series [3], a half-maximal effect (EC50) was put at 0.059 µM.

`CC(c1ccn(C(C)C)c(=O)c1)N1C[C@@H](C)n2nc3c(c2C1=O)CN(C(=O)c1ccc(Cl)c(C(F)(F)F)c1)[C@H](C)C3` (single isomer, unassigned) [Compound 47B, (3R,7R)-2-(4-chloro-3-(trifluoromethyl)benzoyl)-9-((S*)-1-(1-isopropyl-2-oxo-1,2-dihydropyridin-4-yl)ethyl)-3,7-dimethyl-1,2,3,4,8,9-hexahydropyrido[4′,3′:3,4]pyrazolo[1,5-a]pyrazin-10(7H)-one]: the “HLM Metabolism t1/2” value in series [1] turned out to be 2.4 h. In series [2], the CC50 was > 50 µM. In series [3], this compound registered an EC50 of 0.016 µM.

`CC(c1ccc(C(F)(F)F)nc1)N1C[C@@H](C)n2nc3c(c2C1=O)CN(C(=O)c1ccc(Cl)c(C#N)c1)[C@H](C)C3` (single isomer, unassigned) [Compound 12B, 2-Chloro-5-((3R,7R)-3,7-dimethyl-10-oxo-9-((S*)-1-(6-(trifluoromethyl)pyridin-3-yl)ethyl)-1,2,3,4,7,8,9,10-octahydropyrido[4′,3′:3,4]pyrazolo[1,5-a]pyrazine-2-carbonyl)benzonitrile]: in series [1], the “HLM Metabolism t1/2” value was >3 h. Besides, the CC50 in series [2] is > 50 µM. This compound also displayed an EC50 in series [3] of 0.068 µM.

Consider `CC(c1ccc(C(C)(C)O)nc1)N1C[C@@H](C)n2nc3c(c2C1=O)CN(C(=O)c1cc(F)c(Cl)c(F)c1)[C@H](C)C3` (single isomer, unassigned) [Compound 60B, (3R,7R)-2-(4-chloro-3,5-difluorobenzoyl)-9-((S*)-1-(6-(2-hydroxypropan-2-yl)pyridin-3-yl)ethyl)-3,7-dimethyl-1,2,3,4,8,9-hexahydropyrido[4′,3′:3,4]pyrazolo[1,5-a]pyrazin-10(7H)-one], for which the “HLM Metabolism t1/2” value in series [1] is >3 h. Besides, in series [2], the CC50 was > 50 µM. Besides, in series [3], the EC50 is 0.052 µM.

Take `CC(c1ccc(C(C)(C)O)nc1)N1C[C@@H](C)n2nc3c(c2C1=O)CN(C(=O)c1ccc(Cl)c(Cl)c1)[C@H](C)C3` (single isomer, unassigned) [Compound 2B, (3R,7R)-2-(3,4-dichlorobenzoyl)-9-((S*)-1-(6-(2-hydroxypropan-2-yl)pyridin-3-yl)ethyl)-3,7-dimethyl-1,2,3,4,8,9-hexahydropyrido[4′,3′:3,4]pyrazolo[1,5-a]pyrazin-10(7H)-one]: the “HLM Metabolism t1/2” value in series [1] was determined as 2.3 h. For the same compound, the CC50 in series [2] was > 50 µM. Moreover, a half-maximal effect in series [3] (EC50) was put at 0.015 µM.

Turning to `CC(c1cnc(C(F)(F)F)cn1)N1C[C@@H](C)n2nc3c(c2C1=O)CN(C(=O)c1ccc(Cl)c(Cl)c1)[C@H](C)C3` (single isomer, unassigned) [Compound 7A, (3R,7R)-2-(3,4-dichlorobenzoyl)-3,7-dimethyl-9-((R*)-1-(5-(trifluoromethyl)pyrazin-2-yl)ethyl)-1,2,3,4,8,9-hexahydropyrido[4′,3′:3,4]pyrazolo[1,5-a]pyrazin-10(7H)-one], in series [1] (human, pooled human liver microsomes, pH 7.4, pooled human liver microsomes 0.5 mg/mL, read-out: HLM Metabolism t1/2), the half-life at 1 μM is > 3 h. Also, it took 44.8 µM to reach half-maximal cytotoxicity in series [2] (CC50). In series [3], it took 0.52 µM to reach a half-maximal effect (EC50).

For `CC(c1ccc(NS(C)(=O)=O)cn1)N1C[C@@H](C)n2nc3c(c2C1=O)CN(C(=O)c1ccc(Cl)c(C(F)(F)F)c1)[C@H](C)C3` (single isomer, unassigned) [Compound 33B, N-(6-((S*)-1-((3R,7R)-2-(4-chloro-3-(trifluoromethyl)benzoyl)-3,7-dimethyl-10-oxo-1,3,4,7,8,10-hexahydropyrido[4′,3′:3,4]pyrazolo[1,5-a]pyrazin-9(2H)-yl)ethyl)pyridin-3-yl)methanesulfonamide], the “HLM Metabolism t1/2” value in series [1] was >3 h. Moreover, the CC50 in series [2] is > 50 µM. This compound came in with an EC50 in series [3] of 0.043 µM.

In the case of `Cc1ncc(C(C)N2C[C@@H](C)n3nc4c(c3C2=O)CN(C(=O)c2ccc(Cl)c(Cl)c2)[C@H](C)C4)cn1` (single isomer, unassigned) [Compound 4B, (3R,7R)-2-(3,4-dichlorobenzoyl)-3,7-dimethyl-9-((S*)-1-(2-methylpyrimidin-5-yl)ethyl)-1,2,3,4,8,9-hexahydropyrido[4′,3′:3,4]pyrazolo[1,5-a]pyrazin-10(7H)-one], the “HLM Metabolism t1/2” value in series [1] is >3 h. Moreover, the CC50 in series [2] is > 50 µM. The same compound had an EC50 in series [3] of 0.057 µM.

Consider `Cc1nnc(C(C)N2C[C@@H](C)n3nc4c(c3C2=O)CN(C(=O)c2ccc(Cl)c(Cl)c2)[C@H](C)C4)o1` (single isomer, unassigned) [Compound 43B, (3R,7R)-2-(3,4-dichlorobenzoyl)-3,7-dimethyl-9-((S*)-1-(5-methyl-1,3,4-oxadiazol-2-yl)ethyl)-1,2,3,4,8,9-hexahydropyrido[4′,3′:3,4]pyrazolo[1,5-a]pyrazin-10(7H)-one], for which the “HLM Metabolism t1/2” value in series [1] was >3 h. In series [2], the CC50 was > 50 µM. For the same compound, the EC50 in series [3] came out at 0.065 µM.

Take `CC(c1cnc(NC2CC2)nc1)N1C[C@@H](C)n2nc3c(c2C1=O)CN(C(=O)c1ccc(Cl)c(Cl)c1)[C@H](C)C3` (single isomer, unassigned) [Compound 37B, (3R,7R)-9-((S*)-1-(2-(cyclopropylamino)pyrimidin-5-yl)ethyl)-2-(3,4-dichlorobenzoyl)-3,7-dimethyl-1,2,3,4,8,9-hexahydropyrido[4′,3′:3,4]pyrazolo[1,5-a]pyrazin-10(7H)-one]: in series [1], the “HLM Metabolism t1/2” value amounted to 0.892 h. The CC50 in series [2] was > 50 µM. This compound also displayed an EC50 in series [3] of 0.041 µM.

`CC(c1ccccn1)N1C[C@@H](C)n2nc3c(c2C1=O)CN(C(=O)c1ccc(Cl)c(Cl)c1)[C@H](C)C3` (single isomer, unassigned) [Compound 65B, (3R,7R)-2-(3,4-dichlorobenzoyl)-3,7-dimethyl-9-((S*)-1-(pyridin-2-yl)ethyl)-1,2,3,4,8,9-hexahydropyrido[4′,3′:3,4]pyrazolo[1,5-a]pyrazin-10(7H)-one]: in series [1], the “HLM Metabolism t1/2” value amounted to 2.02 h. Moreover, in series [2], the CC50 was > 50 µM. A half-maximal effect in series [3] (EC50) was put at 0.046 µM.

Regarding `CC(c1ccc(C(C)(C)O)cc1)N1C[C@@H](C)n2nc3c(c2C1=O)CN(C(=O)c1ccc(Cl)c(Cl)c1)[C@H](C)C3` (single isomer, unassigned) [Compound 8B, (3R,7R)-2-(3,4-dichlorobenzoyl)-9-((S*)-1-(4-(2-hydroxypropan-2-yl)phenyl)ethyl)-3,7-dimethyl-1,2,3,4,8,9-hexahydropyrido[4′,3′:3,4]pyrazolo[1,5-a]pyrazin-10(7H)-one], the “HLM Metabolism t1/2” value in series [1] was >3 h. The compound further displayed a 50% cytotoxic concentration (CC50) in series [2] of 18.7 µM. This compound also returned an EC50 in series [3] of 0.009 µM.

As to `CNC(=O)C1(Oc2ccc(C(C)N3C[C@@H](C)n4nc5c(c4C3=O)CN(C(=O)c3ccc(Cl)c(C#N)c3)[C@H](C)C5)cc2)CC1` (single isomer, unassigned) [Compound 13B, 1-(4-((S*)-1-((3R,7R)-2-(4-chloro-3-cyanobenzoyl)-3,7-dimethyl-10-oxo-1,2,3,4,7,8-hexahydropyrido[4′,3′:3,4]pyrazolo[1,5-a]pyrazin-9(10H)-yl)ethyl)phenoxy)-N-methylcyclopropanecarboxamide], the “HLM Metabolism t1/2” value in series [1] came to 2.15 h. Besides, the CC50 in series [2] is > 50 µM. The compound also gave an EC50 in series [3] of 0.091 µM.

Regarding `Cc1ccc(C(C)N2C[C@@H](C)n3nc4c(c3C2=O)CN(C(=O)c2ccc(Cl)c(Cl)c2)[C@H](C)C4)nn1` (single isomer, unassigned) [Compound 6B, (3R,7R)-2-(3,4-dichlorobenzoyl)-3,7-dimethyl-9-((S*)-1-(6-methylpyridazin-3-yl)ethyl)-1,2,3,4,8,9-hexahydropyrido[4′,3′:3,4]pyrazolo[1,5-a]pyrazin-10(7H)-one], the “HLM Metabolism t1/2” value in series [1] was >3 h. Further, the CC50 in series [2] is > 50 µM. This compound gave a 50% effective concentration (EC50) in series [3] of 0.065 µM.

On to `C[C@@H]1Cc2nn3c(c2CN1C(=O)c1ccc(Cl)c(C(F)(F)F)c1)C(=O)N([C@@H](C)c1ccc([S@@]2(=O)=NCCC2)nc1)C[C@H]3C` (relative stereo) [Compound 30B, (3R,7R)-2-(4-chloro-3-(trifluoromethyl)benzoyl)-3,7-dimethyl-9-((S*)-1-(6-((R*)-1-oxido-4,5-dihydro-3H-116-isothiazol-1-yl)pyridin-3-yl)ethyl)-1,2,3,4,8,9-hexahydropyrido[4′,3′:3,4]pyrazolo[1,5-a]pyrazin-10(7H)-one], for which, in series [1], the “HLM Metabolism t1/2” value was found to be 0.315 h. In addition, in series [2], the CC50 is > 50 µM. Also, in series [3], the EC50 was 0.074 µM.

These data come from US20240287070A1, “FUSED HETEROCYCLIC DERIVATIVES” (Janssen Sciences Ireland Unlimited Company, priority 2021, published 2024).
